Data from PMC10630888, “Nuclear ERK1/2 signaling potentiation enhances neuroprotection and cognition via Importinα1/KPNA2” (EMBO Molecular Medicine, 2023).
“And” between values parts separate entries of the source, which are not always exact repeats. Equal entries are not always repeated.

What was measured:
[1] = test system: tyrosine hydroxylase (TH) positive cells of the SNc; experiment: TH-positive cells in SNc, MPTP model; assay type: in vivo, mouse
Procedure: (§1) Immunohistochemistry was performed as described in Papale et al ([2016]). […]
For in vivo immunohistochemistry experiments, images were acquired from the dorsal striatum using a Leica DM IRB microscope under a 20× objective. The number of p‐ERK, p‐MSK‐1, p‐ELK, p‐MEK‐1, p‐VG K+, c‐Fos, and DARPP‐32 positive cells was counted in 2–3 consecutive sections per mouse, bilaterally and averaged across the sections using the ImageJ software by a blind investigator to the condition. Estimation of nigral cell loss was assessed by quantifying the number of TH‐immunopositive neurons of the SNc in 360 μm‐spaced sections for each animal. […]
Immuno‐labeled sections were visualized under a Leica DM/RBE light microscope and an Olympus BX50 light microscope with Visiopharm Integrator System software (version 4.4.6.9). TH‐positive cells were counted at 200‐μm intervals. The total number of cells (C) for each animal was calculated using the following formula: C = ∑c × (∑A/∑a) × f, where c is the number of cells in each sampling frame, A is the inclusion area for each section, a is the area of the sampling frame for each animal, and f is the frequency of sectioning.

pERK in DG = experiment: pERK in dentate gyrus of Tg2576 mice; assay type: in vivo, mouse; details: for pERK in dentate gyrus (Fig 5 panel k): individual animals
Procedure: Immunohistochemistry was performed as described in Papale et al ([2016]). Briefly, 1 h after blocking in 5% normal goat serum and 0.1% Triton X‐100 solution, free‐floating sections were incubated overnight at 4°C with one of the following primary antibodies: anti‐phospho‐p44/42 MAP kinase (Thr202/Tyr204) (1:200, Cell Signaling Technology #9101), anti‐phospho–Elk‐1 (Ser383) (1:100, Cell Signaling #9181), anti‐phospho‐Kv4.2 (Thr607)‐R (1:100, Santa Cruz sc22254‐R), anti‐phospho‐MSK‐1 (1:100 Cell Signaling Technology #9595), anti‐phospho‐MEK1/2 (Ser218/222) (1:100, sc‐7995 Santa Cruz Biotechnology), c‐Fos (1:100, sc‐52 Santa Cruz Biotechnology), tyrosine Hydroxylase (monoclonal 1:1,000, Sigma Aldrich, Italy) and anti‐DARPP‐32 (H3) (1:100, Santa Cruz Biotechnology, #sc‐271111) overnight at 4°C. Sections were then incubated with biotinylated goat anti‐rabbit IgG (1:200, Vector Laboratories) or biotinylated goat anti‐mouse (1:200, Vector Laboratories) for 2 h. The classic avidin‐peroxidase complex (ABC, Vector, UK) protocol was applied, using 3,3′‐diaminobenzidine (DAB, Sigma) as a chromogen.
Tg2576 mice were administered with RB5 or Scramble (20 mg/kg i.p.) for either 7 days, for IHC analysis, or with a single injection (20 mg/kg i.p.), for behavioral analysis.

NOR memory = experiment: Novel object recognition test (NOR); assay type: in vivo, mouse; details: mice, single systemic administration, 20 mg/kg i.p.
Procedure: NOR was performed as previously described (d'Isa et al, [2014]). Briefly, the test was performed in an open square box placed in a quiet room with dim light. The objects used were parallelepipeds in metal and glass vials filled with water. The protocol required 3 days and it was performed as follows.
Day 1: mice were individually placed in the empty arena for 5 min to familiarize with it and to measure their anxiety (thigmotaxis trial). The percentage of thigmotaxis is calculated as the time spent in the peripheral zone out of the total time spent in the arena (300 s.). Animals showing a thigmotaxis > 90% are discarded from the sample because considered biased for anxiety. Day 2: mice were placed into the arena for 10 min, where they were allowed to explore two identical objects (training trial). The amount of time spent by mice exploring each object was scored. […] Times of exploration for the familiar object and for the novel object were recorded. The discrimination index (D.I.), defined as the difference between the exploration time for the novel object and the one for the familiar object, divided by total exploration time, was calculated. The sessions were recorded with the video tracking software SMART (Panlab, Barcelona, Spain). […]

[2] = test system: ERK phosphorylation (pERK); experiment: pERK dose-response in acute striatal slices (ex vivo); assay type: cell-based, mouse; details: fresh acute striatal slices from adult mice, RB5 0.5–100 μM, 1 h at 32°C; GraphPad Prism; n = 8–12 slices per group; read-out: EC50 of pERK enhancement (ERK activation)
Procedure: Adult C57Bl/6 mice were decapitated after cervical dislocation and brain slices were freshly prepared as previously described in Orellana et al ([2012]) and Papale et al ([2016]). Briefly, the brains were rapidly removed from the skull, submerged in ice‐cold sucrose‐based dissecting solution, and sliced into 200 μm‐thick slices using a vibratome. […] After a rapid fixation in 4% PFA, slices were rinsed and cryoprotected overnight at 4°C in 30% sucrose solution. On the following day, slices were cut into 18 μm‐thick slices using a cryostat (Leica CM1850), mounted onto SuperFrost Plus slides (Thermo Scientific) and stored at −20°C until processing for immunohistochemistry or immunofluorescence.
as §1
For ex‐vivo immunohistochemistry experiments, images were acquired from the dorsal striatum using a bright‐field microscope (Macro/Micro Imaging System, Leica) under a 40× magnification. Neuronal quantification was performed with ImageJ software by counting the number of phospho‐ERK positive cells in two sections for each sample in three fields per section. […] The EC50 for pERK was calculated using GraphPad Prism software.

GRKKRRQRRRPPQGGGGGEPRRTEGVGPGVPGEVEMVKGQPFDV [RB5, six D-amino acids, acetylated N-terminus]
Tyrosine hydroxylase (TH) loss in SNc ([1]; MPTP 20 mg/kg i.p. and RB5 20 mg/kg i.p. for 4 days): prevented tyrosine hydroxylase (TH) loss | TH-positive cells in SNc (Fig 5 panel g) ([1]; MPTP model, individual animals): 3818.38 and 2495.7 and 4195.82 and 2081.4 and 2629.68 and 4880.04 and 2139.82 and 2203.06 and 3349.83 and 3862.19 and 2316.4 and 3288.79 and 3386.28 | ERK phosphorylation in dentate gyrus (pERK in DG; Tg2576 mice, 7 months old, 20 mg/kg i.p. for 7 days): restored ERK phosphorylation | pERK in dentate gyrus (Fig 5 panel k) (pERK in DG; Tg2576 mice): 11.21 and 6.88 and 9.13 and 7.17 and 10.84 and 11.62 and 10.66 and 8.7 | pERK in dentate gyrus (Fig 5 panel k) (pERK in DG; WT mice): 8.18 and 9.67 and 8.87 and 7.48 and 10.41 and 9.92 and 13.01 | Persistence of NOR memory (NOR memory): over 120 h | EC50 [2]: 3.4 µM
